The values below are quoted from earlier work in US20230000079A1, “COMBINATION COMPRISING A TRIKETONE HERBICIDE AND A DIPHENYLETHER HERBICIDE, AND A METHOD FOR MAKING AND USING THE COMBINATION” (Generic Crop Science LLC, priority 2021, published 2023).

Structures are written as SMILES. In brackets after ≈: the same amount, converted by molar mass.

For `CS(=O)(=O)c1ccc(C(=O)C2C(=O)CCCC2=O)c([N+](=O)[O-])c1` [Mesotrione, 2-[4-(methylsulfonyl)-2-nitrobenzoyl]cyclohexane-1,3-dione], the water solubility (20° C.) is 1,500 mg/L. `CCOc1cc(Oc2ccc(C(F)(F)F)cc2Cl)ccc1[N+](=O)[O-]` [Oxyfluorfen, 2-chloro-4-(trifluoromethyl)phenyl 3-ethoxy-4-nitrophenyl ether]: the “solubility in most organic solvents” value was “highly soluble” and the solubility in water was 0.1 µg/mL (≈ 0.276 µM).
